The values that follow come from ChEMBL document CHEMBL1201862, “PubChem BioAssay data set” (2004).

pEC50: −log10 of the molar value. Active and inactive are the calls of the source. Some results are limits rather than exact numbers.

Experiment [1] is described as follows: Late stage assay provider counterscreen for TLR9 inhibitors: absorbance-based cell-based MTT cytotoxicity assay. In kind it is functional.
The nature of experiment [2]: HeLa cell cytotoxicity, dose response, cytotoxicity control for MgcRacGAP inhibitor project (AID 624300). Format: functional.
Experiment [3] has as its target T1, Rac GTPase-activating protein 1 (Homo sapiens, UniProt Q9H0H5).
T1 sequence (Q9H0H5 whole entry): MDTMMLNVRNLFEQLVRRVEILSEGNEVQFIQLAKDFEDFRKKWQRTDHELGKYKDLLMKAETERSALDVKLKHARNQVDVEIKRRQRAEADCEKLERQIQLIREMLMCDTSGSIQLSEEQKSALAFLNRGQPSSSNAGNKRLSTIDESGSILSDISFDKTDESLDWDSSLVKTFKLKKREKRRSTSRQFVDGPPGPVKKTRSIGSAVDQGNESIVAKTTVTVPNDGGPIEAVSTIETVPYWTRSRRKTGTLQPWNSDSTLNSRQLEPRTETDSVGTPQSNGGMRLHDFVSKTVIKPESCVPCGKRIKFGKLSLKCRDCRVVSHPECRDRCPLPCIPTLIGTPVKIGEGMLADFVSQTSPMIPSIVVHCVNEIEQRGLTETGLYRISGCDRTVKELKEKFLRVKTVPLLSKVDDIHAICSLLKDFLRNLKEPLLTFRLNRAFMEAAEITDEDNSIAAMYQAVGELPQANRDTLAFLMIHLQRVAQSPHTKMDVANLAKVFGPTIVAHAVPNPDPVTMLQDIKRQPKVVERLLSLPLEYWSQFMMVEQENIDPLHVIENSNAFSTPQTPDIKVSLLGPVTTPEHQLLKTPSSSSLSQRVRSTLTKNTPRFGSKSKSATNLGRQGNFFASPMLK
Kind of experiment: MgcRacGAP GTPase-activating activity inhibitors, confirmation, biochemical, ADP Hunter fluorescence, primary and confirmatory (AID 624330). Format: functional.

Experiment [4] deals with Beta Lactamase (Pseudomonas aeruginosa, UniProt Q932Y6). The experiment in a line: beta-lactamase reporter inhibitor potency, dose response, artefact control for TLR9-MyD88 binding inhibitor project, BLA reporter cells, FRET fluorescence (AID 588341).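 Also: cell based assay in CHO-K1 cells stably expressing beta-lactamase.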 In kind it is cell-based.
Sequence of Beta Lactamase (Q932Y6 whole entry): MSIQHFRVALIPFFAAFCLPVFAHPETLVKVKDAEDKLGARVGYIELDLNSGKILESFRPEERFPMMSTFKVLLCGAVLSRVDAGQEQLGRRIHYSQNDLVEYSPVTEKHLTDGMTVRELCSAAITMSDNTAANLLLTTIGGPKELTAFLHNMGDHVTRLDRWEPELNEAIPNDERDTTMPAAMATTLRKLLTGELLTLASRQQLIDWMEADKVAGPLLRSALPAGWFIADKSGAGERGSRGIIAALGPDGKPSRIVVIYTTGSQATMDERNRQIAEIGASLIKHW
Experiment [5] can be described thus: inhibitors of PGC1a acetylation in cells, dose response, cell-based, cherry-picked samples (AID 720514).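 Also: potency may reflect raised or lowered acetylation signal.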 In kind it is functional.
In experiment [6] the test system is CHO. Kind of experiment: cytotoxicity in TLR9-MyD88 CHO cells, dose response, cytotoxicity control for TLR9-MyD88 binding inhibitor project, cell-based, luminescence (AID 588339).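 Also: CHO cells stably coexpressing TLR9 and MyD88 fusions from primary screen; compound exposure lasted 48 hours before viability readout.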 In kind it is functional, hamster. The conditions noted are these: Cricetulus griseus.
The nature of experiment [7]: A549 lung cell cytotoxicity, dose response, cytotoxicity control, CellTiter-Glo luminescence, dry powder samples (AID 720585). In kind it is functional. On the technique in general: Cellular ATP, detected with luciferase, serves as a proxy for viable cell number.
Experiment [8] deals with fMet-Leu-Phe receptor (Homo sapiens, UniProt P21462). The experiment in a line: FPR ligands, dose response (AID 519). Format: functional.
Sequence of fMet-Leu-Phe receptor (P21462 whole entry): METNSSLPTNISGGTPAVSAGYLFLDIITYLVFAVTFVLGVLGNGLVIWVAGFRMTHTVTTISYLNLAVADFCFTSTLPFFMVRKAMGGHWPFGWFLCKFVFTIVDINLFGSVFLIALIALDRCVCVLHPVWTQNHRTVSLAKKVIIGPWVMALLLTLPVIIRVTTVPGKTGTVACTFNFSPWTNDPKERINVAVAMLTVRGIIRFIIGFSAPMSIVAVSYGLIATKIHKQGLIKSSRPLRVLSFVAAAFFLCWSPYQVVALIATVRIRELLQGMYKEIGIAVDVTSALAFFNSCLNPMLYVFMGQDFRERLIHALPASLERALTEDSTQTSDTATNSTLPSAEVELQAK
The target of experiment [9] is Mu-type opioid receptor (Homo sapiens, UniProt P35372). Kind of experiment: Late-stage results from the probe development effort to identify antagonists of OPRK1: luminescence-based cell-based dose response OPRM1 counterscreen. In kind it is functional. (A counterscreen serves to expose hits that act by an unwanted route or on another target.)
Sequence of Mu-type opioid receptor (P35372 whole entry): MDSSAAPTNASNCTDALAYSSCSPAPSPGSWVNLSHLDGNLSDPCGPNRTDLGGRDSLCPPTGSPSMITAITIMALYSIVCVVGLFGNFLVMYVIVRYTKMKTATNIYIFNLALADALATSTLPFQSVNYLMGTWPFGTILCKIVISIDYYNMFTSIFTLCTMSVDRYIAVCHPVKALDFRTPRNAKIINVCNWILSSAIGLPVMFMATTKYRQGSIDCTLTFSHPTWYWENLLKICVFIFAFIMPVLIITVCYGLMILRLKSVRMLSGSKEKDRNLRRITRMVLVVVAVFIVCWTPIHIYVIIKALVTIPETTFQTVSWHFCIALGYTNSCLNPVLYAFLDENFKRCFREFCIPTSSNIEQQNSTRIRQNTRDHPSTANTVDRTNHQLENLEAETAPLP
Experiment [10] concerns the target Delta-type opioid receptor (Homo sapiens, UniProt P41143). Kind of experiment: Late-stage results from the probe development effort to identify antagonists of OPRK1: fluorescence-based cell-based dose response OPRD1 counterscreen. In kind it is functional.
The target of experiment [11] is Metabotropic glutamate receptor 5 (Rattus norvegicus, UniProt P31424). The experiment in a line: Identification of a glycine sulfonamide based non-MPEP site positive allosteric potentiator (PAM) of mGlu5 (calcium_assay). In kind it is functional.
Sequence of Metabotropic glutamate receptor 5 (P31424 whole entry): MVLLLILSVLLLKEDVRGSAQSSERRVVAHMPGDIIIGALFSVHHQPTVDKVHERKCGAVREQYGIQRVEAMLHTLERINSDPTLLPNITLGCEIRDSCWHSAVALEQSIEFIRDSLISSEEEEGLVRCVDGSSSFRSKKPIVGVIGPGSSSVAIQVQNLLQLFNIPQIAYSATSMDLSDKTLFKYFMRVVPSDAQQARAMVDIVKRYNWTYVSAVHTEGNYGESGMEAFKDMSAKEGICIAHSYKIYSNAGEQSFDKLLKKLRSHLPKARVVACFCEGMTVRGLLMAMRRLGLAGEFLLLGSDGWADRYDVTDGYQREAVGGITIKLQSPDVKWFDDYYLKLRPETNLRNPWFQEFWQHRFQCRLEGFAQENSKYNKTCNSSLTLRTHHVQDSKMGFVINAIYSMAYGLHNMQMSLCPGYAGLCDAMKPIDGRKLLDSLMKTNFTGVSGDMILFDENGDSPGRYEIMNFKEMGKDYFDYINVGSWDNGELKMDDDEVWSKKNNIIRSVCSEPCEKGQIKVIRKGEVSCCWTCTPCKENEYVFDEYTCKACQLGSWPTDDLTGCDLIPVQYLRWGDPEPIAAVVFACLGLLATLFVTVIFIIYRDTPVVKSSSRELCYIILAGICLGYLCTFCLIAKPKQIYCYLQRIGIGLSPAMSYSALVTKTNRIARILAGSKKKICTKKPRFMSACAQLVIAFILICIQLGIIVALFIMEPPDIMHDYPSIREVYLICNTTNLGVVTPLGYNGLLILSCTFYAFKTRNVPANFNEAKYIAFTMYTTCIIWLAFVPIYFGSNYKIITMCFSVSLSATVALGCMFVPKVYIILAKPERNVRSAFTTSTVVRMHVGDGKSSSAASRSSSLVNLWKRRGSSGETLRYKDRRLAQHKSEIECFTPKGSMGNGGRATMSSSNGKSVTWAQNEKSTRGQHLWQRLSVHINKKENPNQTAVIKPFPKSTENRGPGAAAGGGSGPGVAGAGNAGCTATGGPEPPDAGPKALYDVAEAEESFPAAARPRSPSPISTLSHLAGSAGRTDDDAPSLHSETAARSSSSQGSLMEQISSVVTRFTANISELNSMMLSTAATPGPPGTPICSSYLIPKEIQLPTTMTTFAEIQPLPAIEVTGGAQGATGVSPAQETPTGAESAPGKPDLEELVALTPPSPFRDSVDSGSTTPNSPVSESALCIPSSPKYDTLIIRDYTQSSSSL
A short description of experiment [12]: A Cell-Based Confirmatory Screen for Compounds that Inhibit VEEV, TC-83 (8). Format: functional.
Experiment [13] in a line: Late stage assay provider results from the probe development effort to identify selective inhibitors of heat shock protein 90 (HSP90): Absorbance-based cell proliferation assay in MCF7 cells. In kind it is functional.
A short description of experiment [14]: Late stage assay provider results from the probe development effort to identify selective inhibitors of heat shock protein 90 (HSP90): Absorbance-based cell proliferation assay in SKBR3 cells. Format: functional. The conditions noted are these: SK-BR-3.
Experiment [15] concerns the target T2, Methionyl-tRNA synthetase, putative (Trypanosoma brucei brucei, UniProt Q38C91).
T2 sequence (Q38C91 whole entry): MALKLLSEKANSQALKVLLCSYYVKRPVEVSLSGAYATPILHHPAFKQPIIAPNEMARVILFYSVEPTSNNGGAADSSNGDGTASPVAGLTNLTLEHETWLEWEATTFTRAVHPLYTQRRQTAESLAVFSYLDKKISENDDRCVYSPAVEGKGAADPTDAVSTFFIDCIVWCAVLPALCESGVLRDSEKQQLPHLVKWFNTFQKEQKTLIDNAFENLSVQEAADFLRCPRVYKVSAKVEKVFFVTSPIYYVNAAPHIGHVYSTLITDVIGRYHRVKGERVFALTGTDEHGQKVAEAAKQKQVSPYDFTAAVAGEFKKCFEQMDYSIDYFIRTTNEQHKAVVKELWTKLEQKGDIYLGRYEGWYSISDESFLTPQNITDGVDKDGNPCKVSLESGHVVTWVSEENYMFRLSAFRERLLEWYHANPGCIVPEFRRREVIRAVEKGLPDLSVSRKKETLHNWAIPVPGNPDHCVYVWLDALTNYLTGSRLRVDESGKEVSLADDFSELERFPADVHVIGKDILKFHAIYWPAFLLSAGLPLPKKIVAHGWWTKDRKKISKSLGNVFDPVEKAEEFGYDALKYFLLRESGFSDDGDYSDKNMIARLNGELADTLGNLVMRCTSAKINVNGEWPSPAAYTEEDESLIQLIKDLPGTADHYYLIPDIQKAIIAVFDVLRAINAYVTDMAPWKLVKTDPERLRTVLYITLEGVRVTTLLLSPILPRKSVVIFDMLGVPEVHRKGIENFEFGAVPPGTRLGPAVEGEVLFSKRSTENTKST
In kind it is functional, Trypanosoma brucei brucei strain 927/4 GUTat10.1.

Experiment [16] can be described thus: Late stage counterscreen for inhibitors of Trypanosoma brucei methionyl tRNA synthetase (MetRS): Luminescence-based cell-based high throughput dose response assay to identify compounds that are cytotoxic to Jurkat human T lymphocyte cells. In kind it is functional.
For experiment [17], the target named is T2, Methionyl-tRNA synthetase, putative. In kind it is functional, Trypanosoma brucei brucei strain 927/4 GUTat10.1. This is another data set of the same source.
Experiment [18] can be described thus: Counterscreen for inhibitors of Trypanosoma brucei methionyl tRNA synthetase (MetRS): Luminescence-based cell-based high throughput dose response assay to identify compounds that are cytotoxic to Jurkat human T lymphocyte cells. Format: functional.

Sequence of Delta-type opioid receptor (P41143 whole entry): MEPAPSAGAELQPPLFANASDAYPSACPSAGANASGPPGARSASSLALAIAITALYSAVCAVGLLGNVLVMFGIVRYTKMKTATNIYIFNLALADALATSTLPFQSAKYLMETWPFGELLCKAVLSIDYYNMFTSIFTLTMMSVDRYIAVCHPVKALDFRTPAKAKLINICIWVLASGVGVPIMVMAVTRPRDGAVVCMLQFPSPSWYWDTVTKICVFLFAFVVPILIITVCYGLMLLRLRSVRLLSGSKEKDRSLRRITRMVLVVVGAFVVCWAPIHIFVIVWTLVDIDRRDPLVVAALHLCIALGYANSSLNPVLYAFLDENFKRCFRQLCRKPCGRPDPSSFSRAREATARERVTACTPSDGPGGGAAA

In general, CC50 refers to the concentration that lowers cell viability or growth by half. For orientation: IC50 means the midpoint of a concentration-inhibition curve. A word on the AC50: it is the concentration giving half of the maximal activity seen. Turning to `O=C1C=CC2(C=C1)O[C@H](Cc1ccccc1)[C@@H](Cc1ccccc1)O2`, the results for the CC50 in [1] and in experiment [2] were 0.88 µM (active) and 46.5 µM (active), respectively. Also, the figures for the half-inhibitory concentration (IC50) in experiment [3], in experiment [4] and in [6] were 49.6 µM (active), 21.8 µM (inactive) and 0.57 µM (active), respectively. Further, the AC50 in [5] was 1.05 µM (active).
As for `Cc1ccc(/C=C(\CCCC(=O)O)c2nc3ccccc3s2)cc1[N+](=O)[O-]`, the AbsAC50_uM in experiment [7] came out at 140.77 µM.
Usually Ki stands for the dissociation constant of the complex between target and ligand, obtained from inhibition or displacement. As for `COc1ccc2c(=O)c(-c3cnn(-c4ccccc4)c3)c(C)oc2c1`, the Ki in experiment [8] is > 66.7 µM (inactive).
For the compound `CC(C)OC(=O)c1cc(Br)cnc1N1CCC(NC2CCCCC2)CC1`, the IC50 in experiment [9] is 20 µM (inactive); in experiment [10], 3 µM (active).
In general, pEC50 refers to the EC50 on a negative log10 scale, so that one unit is a factor of ten. Take `CS(=O)(=O)N(CC(=O)Nc1ccc(F)cc1F)c1cc(C(F)(F)F)ccc1Cl`: the pEC50 in experiment [11] was 5.62.
As for `CNCCN(C)Cc1nc2ccc(C#N)cc2c(=O)n1-c1ccccc1F`, the IC50 in experiment [12] was 3.69 µM (active).
Regarding `COc1c[nH]c(C(=O)Nc2cccc(C(C)=O)c2)cc1=O`, the IC50 in experiment [13] and in [14] was > 100 µM (inactive) each time.
In the case of `CC(C)OCCCN1CC(=O)N2C(c3cccc([N+](=O)[O-])c3)c3[nH]c4ccccc4c3C[C@H]2C1=O` (stereo partly drawn), the half-maximal inhibitory concentration (IC50) in experiment [15] was 2.17 µM (active); in experiment [16], > 83.3 µM (inactive); in experiment [17], 0.979 µM (active); in [18], 73.1 µM (inactive).
